# Test results from patent US5208243A, “5-isoquinolinesulfonamides” (Adir et Compagnie, priority 1991, dated 1993).
# How the values were obtained:
# rabbit aorta [1] = assay: Contraction of rabbit aorta induced by noradrenaline in a normal physiological medium; design: species or system New Zealand rabbit; conditions: Oryctolagus cuniculus, noradrenaline 10^-6 M, read-out: IC50, noradrenaline stimulus
# Method: (§1) Studies are carried out on rings, 3 mm in length, […] The vascular rings are immersed in a normal physiological solution or in a physiological solution lacking calcium (+0.2 mM of the chelating agent EGTA), which is thermostatically regulated at 37° C. and aerated with a 95% O2 +5% CO2 mixture. The rings are linked to a STATHAM tension sensor (UC2-GOULD). The optimal tension for each vessel is applied and a stabilization period of 90 min is observed for the preparations. a) Antivasoconstrictive activity of the compounds of the invention in a physiological medium.
# [2] = tested on: vasopressor effect of phenylephrine; assay: Cardiovascular reactivity to phenylephrine in wakeful rats, oral administration; type: in vivo, WISTAR rat
# Method: After a 30 to 60 min period of stabilization of wakeful WISTAR rats, a range of concentrations of phenylephrine (between 0 and 16 μg/kg) is injected intravenously.
# Reading of the mean blood pressure and heart rate is carried out at the point where the pressor effect reaches its maximum. After a washing time of at least 2 hours, the test compound is administered intravenously (10 mg/kg) followed 15 minutes later by a new range of phenylephrine.
# b) Effects of the compounds of the invention, administered orally, on the cardiovascular reactivity of phenylephrine.
# The procedure is carried out as above but the intravenous administration of the test compounds is replaced by oral administration (5, 10 and 20 mg/kg) of the test compound. The phenylephrine range is repeated 0.5, 1, 2, 3, 4, 5 and 6 hours after administration of the compound.
# rat aortas = assay: Contraction of rat aortas induced by potassium depolarization (hyperpotassium medium); design: species or system WISTAR rat; conditions: read-out: IC50 (concentration inhibiting by 50% the contraction of rat aortas induced by potassium depolarization)
# Excerpt: The rings are linked to a STATHAM tension sensor (UC2-GOULD).
# rabbit aortas = assay: Contraction of rabbit aortas induced by noradrenaline in a medium without calcium; design: species or system New Zealand rabbit; conditions: Oryctolagus cuniculus, 0.5 h, rabbit aorta, incubated 30 minutes
# Method: as §1, with “b)” for “a)”, “medium without calcium.” for “physiological medium.”
# guinea pig left auricle [3] = assay: Ouabain intoxication of guinea pig left auricle; conditions: compound 10^-5 M
# rabbit aorta [4] = assay: Contraction of rabbit aorta induced by angiotensin II in a medium without calcium; design: species or system New Zealand rabbit; conditions: Oryctolagus cuniculus, 10^-5 M, medium lacking calcium
# Method: as §1, with “b)” for “a)”, “medium without calcium.” for “physiological medium.”
# rabbit mesenteric artery = assay: Contraction of rabbit mesenteric artery induced by electrical stimulation; design: species or system New Zealand rabbit; conditions: Oryctolagus cuniculus, normal physiological medium
# Method: as §1
# rabbit aorta [5] = assay: Contraction of rabbit aorta induced by phorbol ester in a medium without calcium; design: species or system New Zealand rabbit; conditions: Oryctolagus cuniculus, 10^-5 M, medium lacking calcium
# Method: as §1, with “b)” for “a)”, “medium without calcium.” for “physiological medium.”
# reperfusion arrhythmias = assay: Reperfusion arrhythmias after coronary ligature in rats; type: in vivo, WISTAR rat; conditions: 2 mg/kg intravenous
# Method: C/ Action of the compounds of the invention on reperfusion arrhythmias.
# A thoracotomy and a coronary ligature are carried out on WISTAR rats. After stabilization for 10 min, 2 mg/kg of the test compound are administered intravenously. The blood pressure, the heart rate and the electrocardiogram are recorded. Five minutes after injecting the product, the coronary ligature is tightened.
# After 5 minutes of stenosis, the ligature is removed and the electrocardiogram as well as the blood pressure are recorded for 10 consecutive minutes. The delay in the appearance of the various rhythm disorders as well as the mortality are measured.
# isolated heart = assay: Isolated heart subjected to hypoxia-reoxygenation; design: species or system WISTAR rat; conditions: after 30 minutes of reoxygenation
# Method: The heart is removed from WISTAR rats (325-375 g). The heart is rapidly perfused according to the technique of LANGENDORFF at a constant pressure of 101.310^2 Pa and electrically stimulated at 5 Hz. Isovolumetric contractions are recorded by means of a polyethylene ballonet linked to a pressure sensor (P23-GOULD) introduced into the left ventricle and inflated so as to obtain a diastolic pressure of between 6.710^2 and 13.310^2 Pa. c) Protective effect of the compounds of the invention on an isolated heart subjected to hypoxia-reoxygenation. An experimental procedure similar to that described in the preceding test is followed, the ischemia-reperfusion stage being replaced by a 60 min hypoxia produced by the administration of a 95% N2 +5% CO2 gaseous mixture during this period and followed by a 30 min reoxygenation. The test compounds are incubated for 15 min before and during the period of hypoxia.
# rabbit aorta [6] = assay: Contraction of rabbit aorta induced by endothelin in a medium without calcium; design: species or system New Zealand rabbit; conditions: Oryctolagus cuniculus, 10^-5 M, medium lacking calcium
# Method: as §1, with “b)” for “a)”, “medium without calcium.” for “physiological medium.”
# guinea pig left auricle [7] = assay: Veratridine intoxication of guinea pig left auricle; conditions: compound 10^-5 M
# Method: a) Effect of the compounds of the invention on the intoxication of guinea pig left auricle.
# The left auricles are removed from guinea pigs (350-450 g) anesthetized with sodium pentobarbital (30 mg/kg). The auricles are attached to a STATHAM tension sensor (UC2-GOULD) and the initial tension applied is 0.5 grams.
# The auricles are electrically stimulated at 1 Hz by means of platinum electrodes. The intoxications are produced either by the addition of ouabain (10^-6 M) or by the addition of veratridine (10^-5 M). The test compounds are added 15 minutes before adding the toxic agent.
structure (smiles),measurement,setting,value
"CN(CC1CCN(CCCOc2ccc(F)cc2)CC1)S(=O)(=O)c1cccc2cnccc12.Cl.Cl [Example 17, N-Methyl-N-{[1-[3-(p-fluorophenoxy)propyl]-4-piperidyl]methyl}-5-isoquinolinesulfonamide dihydrochloride]",IC50,rabbit aorta [1],1500 nM
same,reduction of the vasopressor effect of phenylephrine,"[2]; 20 mg/kg oral, maximum after 2 hours",60%
same,time of appearance of the inhibitory activity,[2]; after oral administration,30 min
same,time of maximum inhibitory activity,"[2]; after oral administration, 20 mg/kg",2 h
same,duration for which the inhibitory activity remains stable,[2]; oral,6 h
same,IC50,rat aortas,1500 nM
same,inhibition at 1 µM,rabbit aortas; compound 10^-6 M,90%
same,inhibition at 0.1 µM,rabbit aortas; compound 10^-7 M,40%
same,% contraction,guinea pig left auricle [3]; 10 min,201.5 ± 31.5%
same,Contracture (%),guinea pig left auricle [3]; 15 min,0%
same,% contraction,guinea pig left auricle [3]; 30 min,186.5 ± 46%
same,Contracture (%),guinea pig left auricle [3]; 30 min,2.5 ± 2.5%
same,% contraction,guinea pig left auricle [3]; 60 min,179 ± 44%
same,Contracture (%),guinea pig left auricle [3]; 60 min,5 ± 3.3%
same,inhibition at 10 µM,rabbit aorta [4],21%
same,IC50,rabbit mesenteric artery,100 nM
same,inhibition at 10 µM,rabbit aorta [5],35%
same,delay in the appearance of ventricular extrasystoles and tachycardias,reperfusion arrhythmias,very substantially delays the appearance of ventricular extrasystoles and tachycardias
same,prevention of the appearance of ventricular fibrillations,reperfusion arrhythmias,100%
same,mortality rate,reperfusion arrhythmias; control 4 deaths out of 9,zero
same,increase of the contraction relative to the control hearts,isolated heart,more than 100%
same,inhibition at 10 µM,rabbit aorta [6],67%
same,% contraction,guinea pig left auricle [7]; 5 min,218.8 ± 50.8%
same,% contraction,guinea pig left auricle [7]; 15 min,181 ± 51%
same,Contracture (%),guinea pig left auricle [7]; 15 min,0%
same,Contracture (%),guinea pig left auricle [7]; 30 min,0%
same,% contraction,guinea pig left auricle [7]; 60 min,157.1 ± 42.6%
same,Contracture (%),guinea pig left auricle [7]; 60 min,0%
